US10077243B2, “Compounds for treating disorders mediated by metabotropic glutamate receptor 5, and methods of use thereof” (Sunovion Pharmaceuticals Inc., priority 2009, dated 2018)

Biological target: T1, human mGluR5 (Homo sapiens, UniProt P41594)
T1 construct: expressed in transfected cells; host or cells: HEK293 cells stably expressing rat GLAST (EAAT1), stably transfected with pcDNAzeo3.1 carrying synthetic human mGluR5 DNA; zeocin-selected single clones
Assay: In vitro cell-based FLIPR calcium assay for positive modulation of the activation of mGluR5 by glutamate (PAM EC50)
Settings: HEK293/GLAST cells expressing recombinant human mGluR5; FLIPR calcium signal; glutamate added at its EC20; read-out: mGluR5 PAM EC50
Outline: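 HEK293/GLAST cells stably expressing mGluR5 were loaded with calcium-sensitive dye (25 °C, 45–60 min) in HBSS/20 mM HEPES. Test compounds were assayed in buffer containing glutamate at that day's EC20, with FLIPR fluorescence recorded. Controls contained 0.3% DMSO without compound.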

T1 sequence (P41594 21-1212): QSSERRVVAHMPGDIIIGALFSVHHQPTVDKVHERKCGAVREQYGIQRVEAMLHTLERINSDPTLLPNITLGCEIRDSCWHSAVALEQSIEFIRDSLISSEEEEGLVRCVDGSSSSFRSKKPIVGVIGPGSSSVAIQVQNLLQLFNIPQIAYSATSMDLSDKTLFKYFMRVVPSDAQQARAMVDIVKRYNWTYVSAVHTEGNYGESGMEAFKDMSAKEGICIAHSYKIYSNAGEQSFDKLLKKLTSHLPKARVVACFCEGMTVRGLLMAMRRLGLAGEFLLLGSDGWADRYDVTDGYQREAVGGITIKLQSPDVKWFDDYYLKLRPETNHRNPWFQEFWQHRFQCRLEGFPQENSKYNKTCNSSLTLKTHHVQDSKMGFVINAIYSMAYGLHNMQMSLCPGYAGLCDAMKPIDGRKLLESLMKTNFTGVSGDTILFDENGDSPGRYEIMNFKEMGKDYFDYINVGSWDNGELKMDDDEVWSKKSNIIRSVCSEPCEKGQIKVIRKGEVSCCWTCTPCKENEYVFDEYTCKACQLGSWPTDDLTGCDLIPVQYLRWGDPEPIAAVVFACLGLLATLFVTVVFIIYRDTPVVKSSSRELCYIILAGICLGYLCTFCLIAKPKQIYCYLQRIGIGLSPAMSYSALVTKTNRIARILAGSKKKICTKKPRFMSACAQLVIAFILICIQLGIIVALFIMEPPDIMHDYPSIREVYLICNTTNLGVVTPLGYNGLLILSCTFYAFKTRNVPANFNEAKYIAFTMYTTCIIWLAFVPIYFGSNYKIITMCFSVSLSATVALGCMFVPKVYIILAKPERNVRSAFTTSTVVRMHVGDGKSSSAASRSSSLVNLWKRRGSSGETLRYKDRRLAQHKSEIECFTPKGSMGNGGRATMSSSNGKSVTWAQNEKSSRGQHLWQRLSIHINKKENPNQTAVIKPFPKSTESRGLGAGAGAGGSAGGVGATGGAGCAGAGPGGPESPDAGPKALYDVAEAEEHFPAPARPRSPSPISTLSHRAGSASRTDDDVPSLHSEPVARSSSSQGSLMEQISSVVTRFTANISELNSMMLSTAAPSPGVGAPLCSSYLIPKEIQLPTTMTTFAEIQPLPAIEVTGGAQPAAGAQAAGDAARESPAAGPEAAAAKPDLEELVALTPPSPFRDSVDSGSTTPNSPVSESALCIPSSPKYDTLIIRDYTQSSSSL

Row | EC50 [nM] | SMILES
1 | 300 to 1000 | CN1C2CCC1Cn1c(nc3cc(C#Cc4cccc(F)c4)ccc3c1=O)C2 (stereo not drawn) [Example 9.1, 3-((3-fluorophenyl)ethynyl)-14-methyl-8,9,10,11-tetrahydro-6H-7,10-epiminoazocino[2,1-b]quinazolin-13(7H)-one]
2 | 100 to 300 | O=c1c2ccc(C#Cc3ccccn3)cc2nc2n1CC1CCCCN1CC2 (stereo not drawn) [Example 9.2, 3-(pyridin-2-ylethynyl)-9,10,11,12,12a,13-hexahydro-6H-pyrido[2′,1′:3,4][1,4]diazepino[7,1-b]quinazolin-15(7H)-one]
3 | 30 to 100 | O=c1c2ccc(C#Cc3ccccn3)cc2nc2n1CC1CCCN1CC2 (stereo not drawn) [Example 9.4, 9-(pyridin-2-ylethynyl)-2,3,5,6,14,14a-hexahydropyrrolo[2′,1′:3,4][1,4]diazepino[7,1-b]quinazolin-12(1H)-one]
4 | 100 to 300 | O=c1c2ccc(C#Cc3ccccn3)cc2nc2n1CCN1CCCC1C2 (stereo not drawn) [Example 9.5, 11-(pyridin-2-ylethynyl)-2,3,5,6,14,14a-hexahydropyrrolo[1′,2′:4,5][1,4]diazepino[7,1-b]quinazolin-8(1H)-one]
5 | 10 to 30 | CN1CCCn2c(nc3cc(C#Cc4ccc(F)cc4)ccc3c2=O)CC1 [Example 10.1, 11-((4-fluorophenyl)ethynyl)-3-methyl-3,4,5,6-tetrahydro-1H-[1,5]diazocino[2,1-b]quinazolin-8(2H)-one]
6 | 30 to 100 | CN1CCCc2nc3cc(C#Cc4ccc(F)cc4)ccc3c(=O)n2CC1 [Example 10.2, 9-((4-fluorophenyl)ethynyl)-3-methyl-3,4,5,6-tetrahydro-1H-[1,4]diazocino[8,1-b]quinazolin-12(2H)-one]

The next lines start with the molecule.

Row | SMILES | EC50 [nM]
7 | O=CN1CCc2nc3cc(C#Cc4cccc(F)c4)ccc3c(=O)n2CC1 [Example 8.18, 8-((3-fluorophenyl)ethynyl)-11-oxo-1,2,4,5-tetrahydro-[1,4]diazepino[7,1-b]quinazoline-3(11H)-carbaldehyde] | 30 to 100
8 | O=c1c2ccc(C#Cc3ccccn3)cc2nc2n1CCN(CCC(F)(F)F)CC2 [Example 8.21, 8-(pyridin-2-ylethynyl)-3-(3,3,3-trifluoropropyl)-2,3,4,5-tetrahydro-[1,4]diazepino[7,1-b]quinazolin-11(1H)-one] | 100 to 300
9 | C#CCN1CCc2nc3cc(C#Cc4ccccn4)ccc3c(=O)n2CC1 [Example 8.22, 3-(prop-2-yn-1-yl)-8-(pyridin-2-ylethynyl)-2,3,4,5-tetrahydro-[1,4]diazepino[7,1-b]quinazolin-11(1H)-one] | 30 to 100
10 | N#CCN1CCc2nc3cc(C#Cc4ccccn4)ccc3c(=O)n2CC1 [Example 8.23, 2-(11-oxo-8-(pyridin-2-ylethynyl)-1,2,4,5-tetrahydro-[1,4]diazepino[7,1-b]quinazolin-3(11H)-yl)acetonitrile] | 30 to 100
11 | CC(C#N)N1CCc2nc3cc(C#Cc4ccccn4)ccc3c(=O)n2CC1 (stereo not drawn) [Example 8.24, 2-(11-oxo-8-(pyridin-2-ylethynyl)-1,2,4,5-tetrahydro-[1,4]diazepino[7,1-b]quinazolin-3(11H)-yl)propanenitrile] | 300 to 1000
12 | O=c1c2ccc(C#Cc3ccccn3)cc2nc2n1CCCCN2 [Example 8.25, 10-(pyridin-2-ylethynyl)-2,3,4,5-tetrahydro-[1,3]diazepino[2,1-b]quinazolin-7(1H)-one] | 10 to 30
13 | O=c1c2ccc(C#Cc3ccccn3)cc2nc2n1C1CCN(CC1)C2 [Example 8.26] | 100 to 300
14 | CC1Cc2nc3cc(C#Cc4ccccn4)ccc3c(=O)n2CCN1C (stereo not drawn) [Example 8.28, 3,4-dimethyl-8-(pyridin-2-ylethynyl)-2,3,4,5-tetrahydro-[1,4]diazepino[7,1-b]quinazolin-11(1H)-one] | 300 to 1000
15 | CC1Cn2c(nc3cc(C#Cc4ccccn4)ccc3c2=O)CCN1C (stereo not drawn) [Example 8.30, 2,3-dimethyl-8-(pyridin-2-ylethynyl)-2,3,4,5-tetrahydro-[1,4]diazepino[7,1-b]quinazolin-11(1H)-one] | 100 to 300
